Where “and” joins values, the source holds several entries; their conditions need not be identical. Identical values can stand only once. Like-named read-outs stand apart in the source and are kept apart here.
What was measured:
Prostate Cancer = test: cells; details: Homo sapiens, read-out: MG_MID GI50
OVCAR-8 = test: cells; details: Homo sapiens, OVCAR-8, 48 h; for CC50: read-out: LC50, OVCAR-8, 48 h
[1] = test system: Non-small cell lung cancer; details: Non-small cell lung cancer subpanel
MALME-3M = test: NCI-60 SRB screen; details: 48 h
A498 = test: cells; details: Homo sapiens, A498, 48 h
M14 = test: NCI-60 SRB screen; details: M14, 48 h; for CC50: read-out: LC50, M14, 48 h
HCT-116 = test: cells; details: Homo sapiens, HCT-116, 48 h
UACC-257 [2] = test: cells; details: Homo sapiens, UACC-257, 48 h; for CC50: read-out: LC50, UACC-257, 48 h
SK-MEL-5 [3] = details: for TGI: SK-MEL-5, 48 h
MDA-MB-435 [4] = test: cells; details: Homo sapiens, MDA-MB-435, 48 h; for CC50: read-out: LC50, MDA-MB-435, 48 h
UACC-257 [5] = test system: UACC-257
Breast cancer = Breast cancer subpanel
SF-268 = test: cells; details: Homo sapiens, SF-268, 48 h; for CC50: read-out: LC50, SF-268, 48 h
PC-3 = details: PC-3, 48 h
HS 578T = test: cells; details: Homo sapiens, 48 h; for GI50: HS 578T; for CC50: read-out: LC50
HT29 [6] = details: HT29, 48 h
HT29 [7] = test: cells; details: Homo sapiens, HT-29, 48 h, HT29, 48 h
HCT-15 = test: NCI-60 SRB screen; details: HCT-15, 48 h
NCI-H322M = test: NCI-60 SRB screen; details: 48 h; for CC50: read-out: LC50, NCI-H322M, 48 h
LOX IMVI = details: 48 h; for growth GP: 10 μM
SN12C = details: 48 h
Renal Cancer = Renal Cancer subpanel
MDA-MB-435 [8] = test system: MDA-MB-435
SK-MEL-5 [9] = test: cells; details: Homo sapiens, SK-MEL-5, 48 h; for CC50: read-out: LC50, SK-MEL-5, 48 h
[10] = test system: panel of 60 cancer cell lines; test: cells; details: Homo sapiens, read-out: MG_MID GI50
NCI-H460 = test: NCI-60 SRB screen; details: NCI-H460, 48 h; for CC50: read-out: LC50
ACHN = test: NCI-60 SRB screen; details: 48 h; for growth GP: 10 μM; for CC50: read-out: LC50, ACHN, 48 h
[11] = Homo sapiens, Malme-3M, read-out: LC50, MALME-3M, 48 h

O=C(O)CCCCCN1C(=O)/C(=C/C=C/c2ccc([N+](=O)[O-])o2)SC1=S [14b, 6-((Z)-5-((E)-3-(5-nitrofuran-2-yl)allylidene)-4-oxo-2-thioxothiazolidin-3-yl)hexanoic acid]
GI50 (Prostate Cancer): 1.26 µM | GI50 (UO-31; UO-31, 48 h): 0.67 µM | TGI (UO-31; UO-31, 48 h): 1.85 µM and 2.05 µM | CC50 (UO-31; human, 48 h): 4.89 µM | growth GP (BT-549; BT-549, 10 μM, 48 h): -97.16% | CC50 (BT-549; human, 48 h): 3.03 µM | GI50 (OVCAR-8): 0.57 µM | CC50 (OVCAR-8): 6.43 µM | MG_MID TGI [1]: 3.85 µM | GI50 (MALME-3M; Homo sapiens, Malme-3M): 0.28 µM | CC50 (MALME-3M; [11]): 2.85 µM | GI50 (MALME-3M; MALME-3M): 0.24 µM | TGI (MALME-3M; MALME-3M): 0.76 µM and 0.72 µM | CC50 (MALME-3M; read-out: LC50, MALME-3M): 2.72 µM | GI50 (A498): 8.13 µM | CC50 (M14; Homo sapiens): 5.56 µM | GI50 (HCT-116): 0.31 µM | GI50 (UACC-257 [2]): 1.6 µM | CC50 (UACC-257 [2]): 6.27 µM | TGI (SK-MEL-5 [3]): 1.98 µM and 3.14 µM | CC50 (SK-MEL-5 [3]; human, 48 h): 6.38 µM | GI50 (MDA-MB-435 [4]): 0.42 µM | CC50 (MDA-MB-435 [4]): 4.47 µM | GI50 (UACC-257 [5]; UACC-257, 48 h): 1.4 µM | TGI (UACC-257 [5]; UACC-257, 48 h): 3.16 µM and 3.08 µM | CC50 (UACC-257 [5]; human, 48 h): 6.81 µM | MG_MID TGI (Breast cancer): 2.61 µM | GI50 (SF-268): 1.26 µM | CC50 (SF-268): 5.82 µM | TGI (PC-3): 3.15 µM and 3.30 µM | GI50 (HS 578T): 1.44 µM | CC50 (HS 578T): > 100 µM | GI50 (HT29 [6]): 1.13 µM | TGI (HT29 [6]): 2.71 µM and 3.39 µM | GI50 (HT29 [7]): 1.19 µM | GI50 (HCT-15): 0.16 µM | TGI (HCT-15): 0.51 µM and 0.35 µM | GI50 (HCT-15; Homo sapiens): 0.19 µM | GI50 (NCI-H322M): 1.82 µM | TGI (NCI-H322M): 3.39 µM and 3.55 µM | GI50 (NCI-H322M; Homo sapiens): 1.68 µM | CC50 (NCI-H322M; Homo sapiens): 6.84 µM | growth GP (LOX IMVI; LOX IMVI): -95.58% | GI50 (LOX IMVI; LOX IMVI): 0.19 µM | TGI (LOX IMVI; LOX IMVI): 0.42 µM and 0.39 µM | CC50 (LOX IMVI; human): 0.78 µM | GI50 (SN12C; SN12C): 0.26 µM | TGI (SN12C; SN12C): 1.36 µM and 0.86 µM | CC50 (SN12C; human): 3.24 µM | MG_MID TGI (Renal Cancer): 4.63 µM | GI50 (MDA-MB-435 [8]; MDA-MB-435, 48 h): 0.28 µM | CC50 (MDA-MB-435 [8]; human, 48 h): 2.74 µM | CC50 (SK-MEL-5 [9]): 4.6 µM | GI50 [10]: 1.1 µM | growth GP (CAKI-1; CAKI-1, 10 μM, 48 h): -96.43% | GI50 (CAKI-1; CAKI-1, 48 h): 1.4 µM | TGI (CAKI-1; CAKI-1, 48 h): 2.09 µM and 2.72 µM | GI50 (NCI-H460; Homo sapiens): 1 µM | CC50 (NCI-H460; Homo sapiens): 5.54 µM | GI50 (NCI-H460): 0.63 µM | TGI (NCI-H460): 2.36 µM and 2.31 µM | growth GP (ACHN): -99.76% | GI50 (ACHN): 1.21 µM | TGI (ACHN): 2.82 µM and 2.46 µM | GI50 (ACHN; Homo sapiens): 1.5 µM | CC50 (ACHN; Homo sapiens): 5.31 µM

O=C(O)CCN1C(=O)/C(=C/C=C/c2ccc([N+](=O)[O-])o2)SC1=S [12b, 3-((Z)-5-((E)-3-(5-Nitrofuran-2-yl)allylidene)-4-oxo-2-thioxothiazolidin-3-yl)propanoic acid]
GI50 (Prostate Cancer): 2.55 µM | TGI (UO-31; UO-31, 48 h): 2.25 µM | TGI (BT-549; BT-549, 48 h): 2.88 µM | GI50 (OVCAR-8): 1.84 µM | CC50 (OVCAR-8): 28.2 µM | MG_MID TGI [1]: 7.75 µM | GI50 (MALME-3M; Homo sapiens, Malme-3M): 0.5 µM | CC50 (MALME-3M; [11]): 4.25 µM | TGI (MALME-3M; MALME-3M): 1.66 µM | GI50 (A498): 14.3 µM | GI50 (M14; Homo sapiens): 1.48 µM | CC50 (M14; Homo sapiens): 6.31 µM | TGI (M14): 3.05 µM | GI50 (UACC-257 [2]): 1.81 µM | CC50 (UACC-257 [2]): 9.21 µM | growth GP (SK-MEL-5 [3]; SK-MEL-5, 10 μM, 48 h): -97.62% | TGI (SK-MEL-5 [3]): 2.24 µM | GI50 (MDA-MB-435 [4]): 1.16 µM | CC50 (MDA-MB-435 [4]): 5.32 µM | TGI (UACC-257 [5]; UACC-257, 48 h): 4.08 µM | MG_MID TGI (Breast cancer): 3.64 µM | GI50 (SF-268): 1.44 µM | CC50 (SF-268): 7.02 µM | TGI (PC-3): 10.6 µM | GI50 (HS 578T): 1.45 µM | CC50 (HS 578T): > 100 µM | TGI (HT29 [6]): 12.5 µM | TGI (HCT-15): 3.50 µM | TGI (NCI-H322M): 19.8 µM | GI50 (NCI-H322M; Homo sapiens): 7.06 µM | CC50 (NCI-H322M; Homo sapiens): 44.7 µM | growth GP (LOX IMVI; LOX IMVI): -95.70% | TGI (LOX IMVI; LOX IMVI): 1.86 µM | growth GP (SN12C; SN12C, 10 μM): -95.84% | TGI (SN12C; SN12C): 2.32 µM | MG_MID TGI (Renal Cancer): 6.01 µM | TGI (MDA-MB-435 [8]; MDA-MB-435, 48 h): 2.48 µM | GI50 (SK-MEL-5 [9]): 1.03 µM | CC50 (SK-MEL-5 [9]): 4.87 µM | GI50 [10]: 1.68 µM | TGI (CAKI-1; CAKI-1, 48 h): 2.74 µM | GI50 (NCI-H460; Homo sapiens): 1.33 µM | CC50 (NCI-H460; Homo sapiens): 6.46 µM | TGI (NCI-H460): 2.93 µM | growth GP (ACHN): -99.00% | TGI (ACHN): 2.97 µM | GI50 (ACHN; Homo sapiens): 1.61 µM | CC50 (ACHN; Homo sapiens): 5.46 µM

Reference: publication PMC12655351, “Synthesis and Anticancer Activity Evaluation of New 5-((5-Nitrofuran-2-yl)allylidene)-2-thioxo-4-thiazolidinones” (Pharmaceuticals, 2025)
